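Each compound was tested at five concentrations against cells in 96-well plates for 48 hours. GI50: concentration for 50% inhibition of growth.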 Calls of active or inactive are those of the source. Cut-off read from the data, not from the text of the source: active = GI50 up to about 1.1 µM and inactive = higher. Non-standard residues stand in square brackets, D forms with d. Residues, ends and D or L forms follow the SMILES beside them. ξ: configuration not given here. *: point of attachment. NMeF = CN[C@@H](Cc1ccccc1)C(=O)O; ξNMeV = CNC(C(=O)O)C(C)C; Boc = CC(C)(C)OC(=O)*; OBn = c1ccc(CO*)cc1
Tests used:
Assay in all cases: DTP human tumour cell line panel, 48 h
EKVX = system: EKVX
HT-29 = system: HT-29
IGROV-1 = system: IGROV-1
K562 = system: K562
MOLT-4 = system: MOLT-4
Malme-3M = system: Malme-3M
NCI-H23 = system: NCI-H23
RPMI-8226 = system: RPMI-8226
SF-268 = system: SF-268
SF-295 = system: SF-295
SK-MEL-5 = system: SK-MEL-5
SNB-19 = system: SNB-19
SR = system: SR
SW-620 = system: SW-620
COLO 205 = system: COLO 205
OVCAR-3 = system: OVCAR-3
NCI-H226 = system: NCI-H226

Measured: GI50

Clc1cc2n[se]nc2cc1Cl
inactive: EKVX > 100 µM | HT-29 > 100 µM | IGROV-1 > 100 µM | K562 > 100 µM | MOLT-4 > 100 µM | Malme-3M > 100 µM | NCI-H23 > 100 µM | RPMI-8226 > 100 µM | SF-268 > 100 µM | SF-295 > 100 µM | SK-MEL-5 > 100 µM | SNB-19 > 100 µM | SR > 100 µM | SW-620 > 100 µM

C=CCn1c(=S)sc2c(O)ncnc21
inactive: COLO 205 > 100 µM | EKVX > 100 µM | HT-29 > 100 µM | IGROV-1 > 100 µM | K562 > 100 µM | MOLT-4 > 100 µM | Malme-3M > 100 µM | NCI-H23 > 100 µM | OVCAR-3 > 100 µM | SF-268 > 100 µM | SF-295 > 100 µM | SK-MEL-5 > 100 µM | SNB-19 > 100 µM | SR > 100 µM | SW-620 > 100 µM

CC(C)C(C(=O)N1CCC[C@@H]1C(=O)OCc1ccccc1)N(C)C(=O)C(C(C)C)N(C)C(=O)[C@H](Cc1ccccc1)N(C)C(=O)[C@H](NC(=O)OC(C)(C)C)C(C)C (stereo partly specified) (Boc-[dV][NMeF][ξNMeV][ξNMeV][dP]-OBn)
inactive: COLO 205 > 100 µM | EKVX > 65.8 µM | HT-29 > 45.4 µM | IGROV-1 > 100 µM | K562 13.7 µM | MOLT-4 7.94 µM | Malme-3M > 89.5 µM | NCI-H226 > 100 µM | NCI-H23 > 81.3 µM | OVCAR-3 > 56.6 µM | RPMI-8226 10.9 µM | SF-268 > 86.1 µM | SF-295 9.04 µM | SK-MEL-5 14.9 µM | SNB-19 > 100 µM | SR > 29.8 µM | SW-620 > 100 µM

COc1cccc2c(SCC(=O)Nc3ccccc3-c3ccccc3NC(=O)CSc3c4ccccc4nc4c(OC)cccc34)c3ccccc3nc12
inactive: COLO 205 > 100 µM | EKVX 21.7 µM | HT-29 > 100 µM | IGROV-1 43.1 µM | K562 74.3 µM | MOLT-4 > 100 µM | NCI-H226 > 100 µM | NCI-H23 > 100 µM | OVCAR-3 > 100 µM | SF-268 45.4 µM | SF-295 > 100 µM | SK-MEL-5 > 100 µM | SNB-19 > 100 µM | SR 76.9 µM

COC(=O)C(Cc1nc2ccccc2nc1C)/C(=N\NC(N)=O)C(=O)Nc1cccc([N+](=O)[O-])c1 (stereo unspecified)
inactive: COLO 205 88.3 µM | EKVX > 100 µM | HT-29 > 100 µM | IGROV-1 > 100 µM | K562 64.3 µM | MOLT-4 57.5 µM | Malme-3M > 100 µM | NCI-H226 > 100 µM | NCI-H23 71.8 µM | OVCAR-3 51.2 µM | RPMI-8226 > 100 µM | SF-268 64.9 µM | SF-295 > 100 µM | SK-MEL-5 > 100 µM | SNB-19 > 100 µM | SR 24.4 µM | SW-620 > 100 µM

CCCCCC(CN1CCOCC1)C(=O)/C=C/c1ccccc1 (stereo unspecified)
inactive: COLO 205 3.77 µM | EKVX 10.4 µM | HT-29 2.67 µM | IGROV-1 3.37 µM | K562 2.16 µM | MOLT-4 1.71 µM | Malme-3M 2.1 µM | NCI-H226 3.36 µM | NCI-H23 3.36 µM | OVCAR-3 2.3 µM | RPMI-8226 2.11 µM | SF-268 1.94 µM | SF-295 3.46 µM | SK-MEL-5 1.53 µM | SNB-19 3.43 µM | SR 1.95 µM | SW-620 1.74 µM

Nc1ccc(C(=O)O)c2[nH]c3ccccc3c(=O)c12
inactive: COLO 205 > 100 µM | HT-29 > 100 µM | IGROV-1 > 100 µM | K562 > 100 µM | MOLT-4 > 100 µM | Malme-3M > 100 µM | RPMI-8226 > 100 µM | SF-268 > 100 µM | SF-295 > 100 µM | SK-MEL-5 > 100 µM | SNB-19 > 100 µM | SR > 100 µM | SW-620 > 100 µM

NC(=O)CCC(Nc1c2ccccc2nc2ccccc12)C(=O)O (stereo unspecified)
inactive: COLO 205 > 100 µM | EKVX 71.3 µM | HT-29 93.1 µM | K562 45.7 µM | MOLT-4 58.1 µM | Malme-3M > 100 µM | NCI-H226 > 100 µM | NCI-H23 > 100 µM | OVCAR-3 56.8 µM | RPMI-8226 17.2 µM | SF-268 > 100 µM | SF-295 > 100 µM | SR 55.2 µM | SW-620 > 100 µM

COCOCC[C@@H]1CC=CC(NC(=O)OCc2ccccc2)C1/C=C/C(=O)CCC1OCCO1 (stereo partly specified)
inactive: COLO 205 20.7 µM | EKVX 50.1 µM | HT-29 38.9 µM | IGROV-1 56.6 µM | K562 32.1 µM | MOLT-4 10.5 µM | Malme-3M 98.2 µM | NCI-H226 46.7 µM | NCI-H23 37.6 µM | OVCAR-3 27.2 µM | RPMI-8226 26.1 µM | SF-268 34 µM | SF-295 48.1 µM | SK-MEL-5 55.2 µM | SNB-19 > 100 µM | SR 3.79 µM | SW-620 22.8 µM

CCCC(N)C(=O)c1ccccc1 (stereo unspecified)
inactive: COLO 205 > 100 µM | EKVX > 100 µM | HT-29 > 100 µM | IGROV-1 > 100 µM | K562 > 100 µM | Malme-3M > 100 µM | NCI-H226 > 100 µM | NCI-H23 > 100 µM | OVCAR-3 > 100 µM | RPMI-8226 > 100 µM | SF-268 > 100 µM | SF-295 > 100 µM | SK-MEL-5 > 100 µM | SNB-19 > 100 µM | SR > 100 µM | SW-620 > 100 µM

CN(c1nc(=[N+](C)C)ss1)C1CCCCC1
inactive: EKVX > 100 µM | HT-29 > 100 µM | IGROV-1 > 100 µM | K562 > 100 µM | MOLT-4 95.1 µM | Malme-3M > 100 µM | NCI-H226 > 100 µM | NCI-H23 74.3 µM | RPMI-8226 62.1 µM | SF-268 60.1 µM | SF-295 93.1 µM | SK-MEL-5 68.7 µM | SNB-19 70.5 µM | SR > 100 µM | SW-620 > 100 µM

COC(=O)C(C(=O)C(=O)Nc1ccc([N+](=O)[O-])cc1)c1nc2ccc([N+](=O)[O-])cc2nc1O (stereo unspecified)
inactive: COLO 205 > 100 µM | EKVX > 100 µM | HT-29 > 100 µM | IGROV-1 > 100 µM | K562 39.2 µM | MOLT-4 > 100 µM | Malme-3M > 100 µM | NCI-H226 > 100 µM | NCI-H23 > 100 µM | OVCAR-3 > 100 µM | SF-268 > 100 µM | SF-295 > 100 µM | SK-MEL-5 65.6 µM | SNB-19 > 100 µM | SR > 100 µM | SW-620 > 100 µM

COC(=O)C1=CC2CC1C(S(=O)(=O)c1ccccc1)C2S(=O)(=O)c1ccccc1 (stereo unspecified)
inactive: COLO 205 8.45 µM | HT-29 13.8 µM | IGROV-1 32.7 µM | K562 5.14 µM | MOLT-4 4.42 µM | Malme-3M 10.7 µM | NCI-H226 17.6 µM | NCI-H23 18.1 µM | OVCAR-3 7.23 µM | RPMI-8226 5.4 µM | SF-268 22.9 µM | SF-295 21.3 µM | SK-MEL-5 16.9 µM | SNB-19 > 100 µM | SR 2.56 µM | SW-620 4.59 µM

CCOC(=O)c1cnc2[nH]c(=O)c3ccccc3n2c1=O
inactive: COLO 205 > 100 µM | EKVX > 100 µM | HT-29 > 100 µM | IGROV-1 > 100 µM | K562 65 µM | MOLT-4 > 100 µM | Malme-3M > 100 µM | NCI-H226 > 100 µM | NCI-H23 > 100 µM | OVCAR-3 > 100 µM | RPMI-8226 > 100 µM | SF-268 94.6 µM | SF-295 > 100 µM | SK-MEL-5 > 100 µM | SNB-19 > 100 µM | SR > 100 µM | SW-620 > 100 µM

COc1ccc2nc3cc(Cl)ccc3c(Sc3ccc([N+](=O)[O-])cc3C)c2c1
inactive: COLO 205 4.06 µM | EKVX > 100 µM | IGROV-1 > 100 µM | K562 > 100 µM | MOLT-4 > 100 µM | Malme-3M > 100 µM | NCI-H226 > 100 µM | NCI-H23 > 100 µM | OVCAR-3 > 100 µM | SF-268 > 100 µM | SF-295 > 100 µM | SK-MEL-5 > 100 µM | SNB-19 > 100 µM | SR > 100 µM | SW-620 > 100 µM

CCOC(=O)/C(=C/c1cccc(OC)c1)N(CC)CC
inactive: COLO 205 > 100 µM | EKVX > 100 µM | HT-29 > 100 µM | IGROV-1 > 100 µM | K562 > 100 µM | MOLT-4 > 100 µM | NCI-H226 > 100 µM | NCI-H23 > 100 µM | OVCAR-3 > 100 µM | RPMI-8226 > 100 µM | SF-268 > 100 µM | SF-295 > 100 µM | SK-MEL-5 > 100 µM | SNB-19 > 100 µM | SR > 100 µM | SW-620 > 100 µM

C=CCCCCCC(O)C(O)C/C=C\C/C=C\CC (stereo unspecified)
inactive: COLO 205 > 18.8 µM | EKVX > 18.8 µM | HT-29 > 18.8 µM | IGROV-1 > 18.8 µM | K562 > 12 µM | MOLT-4 > 14.9 µM | Malme-3M > 18.8 µM | NCI-H226 > 18.8 µM | NCI-H23 > 17.8 µM | OVCAR-3 > 18.8 µM | RPMI-8226 > 18.8 µM | SF-268 > 18.8 µM | SF-295 > 18.8 µM | SK-MEL-5 > 17.5 µM | SNB-19 > 18.8 µM | SR > 9.66 µM | SW-620 > 18.8 µM

— ChEMBL document CHEMBL1201862, “PubChem BioAssay data set” (2004)
